Assay: Stability improvement test for urolithin (residual ratio by HPLC after storage at 60° C.)
Type: physicochemical
Details: for Urolithin A residual ratio (%) (60° C.) 1 week later / Urolithin A residual ratio (%) (60° C.) 2 weeks later: aqueous solution with 10% ethanol, 10% glycerin, 0.005% urolithin A; for Urolithin A residual ratio (%) (60° C.) 1 week later: stored at 60° C. for 1 week; for Urolithin A residual ratio (%) (60° C.) 2 weeks later: stored at 60° C. for 2 weeks
Protocol: The stability of urolithin can be studied by measuring the total amount of urolithin before storage and the total amount of urolithin after storage under a temperature condition of 60° C. for one week or two weeks, and then calculating the urolithin residual ratio (%) according to the following calculation equation. As the method for measuring urolithin, for example, the method using HPLC described in Examples can be used. Urolithin residual ratio (%)=(total amount of urolithin after storage/total amount of urolithin before storage)×100 [Calculation Equation]
A description is given below for a case where urolithin A was used as the urolithin. Analysis of urolithin A was carried out using HPLC. More specifically, urolithin A (manufactured by Dalton Farma) was dissolved in an appropriate solvent to prepare a solution, and the solution was analyzed under the following HPLC conditions. Using the purity (%) (A) and the peak area value (B) in the HPLC, the factor of urolithin A and the urolithin A concentration in the sample were calculated according to the following calculation equation (1) and calculation equation (2). (Calculation Equation for Factor of Urolithin A) Factor of urolithin A=(B)/(concentration of standard solution of urolithin A (mg/L)×(A)/100) (1) (Calculation Equation for Urolithin A Concentration in Sample) Urolithin A concentration in sample (mg/L)=peak area value of urolithin A in sample/factor of urolithin A (2)
To an aqueous solution containing 10% ethanol and 10% glycerin, urolithin A was added to a concentration of 0.005%, and then the urolithin A was dissolved therein. To this solution, collagen (Hanamai) was added to a concentration of 0.5% to prepare a urolithin A-containing aqueous solution. The urolithin A content in the urolithin A-containing aqueous solution was measured after one week of storage and after two weeks of storage under a temperature condition of 60° C. By comparing the urolithin A contents measured before and after the storage, the residual ratio was calculated to evaluate the stability.
The same operation as in Example 1 was carried out except that collagen was not added, to provide a control as Comparative Example 1.
The residual ratio of urolithin A was calculated according to the following calculation equation (3). Urolithin residual ratio (%)=(content of urolithin A after storage/content of urolithin A before storage)×100 (3)

[1] = collagen 0% (Comparative Example 1)

Urolithin A residual ratio (%) (60° C.) 1 week later [1]: 66.9%
Urolithin A residual ratio (%) (60° C.) 2 weeks later [1]: 45.0%
Urolithin A residual ratio (%) (60° C.) 1 week later (collagen 0.5% (Example 1)): 92.4%
Urolithin A residual ratio (%) (60° C.) 2 weeks later (collagen 0.5% (Example 1)): 92.2%
stability of urolithin A (in the presence of collagen versus without collagen, storage at 60° C.): increases in the presence of collagen
SMILES: O=c1oc2cc(O)ccc2c2ccc(O)cc12 [Urolithin A, urolithin A]

Reference: patent US11066381B2, “Urolithins-containing aqueous solution, dried solid composition thereof and production method therefor, and urolithins stabilizing method” (DAICEL CORPORATION, priority 2016, dated 2021)
